Reference: patent US20210330756A1, “Acetylation of Miro1” (University of South Carolina, priority 2020, published 2021)

Legend:
[1] = test system: axon shaft mitochondria of DRG neurons; experiment: FRAP of Mito-GFP in proximal axon shaft segments of DRG neurons; assay type: cell-based, rat
Excerpt: To determine if the effect of growth inhibitors on mitochondrial recovery was limited to distal axons, we performed FRAP on more proximal segments of the axon shaft in DRG neurons expressing Mito-GFP. For analyses of recovery, the bleached ROIs were divided into four subregions along the axon length so that we could distinguish anterograde from retrograde transport-driven Mito-GFP recovery. […] Since this effect of MAG-Fc on recovery could derive from either axons or cell body, we cultured dissociated DRGs in microfluiclic devices where we could limit exposure to MAG-Fc and TubA to the axons.
Mito-KR- and Mito-GFP-expressing DRG neurons were used for FRAP analyses at 48-72 h after transfection. To evaluate mitochondrial motility in Mito-KR-expressing neurons, Mito-KR signals were photobleached using continual exposure to an argon laser set at 594 nm for 30 s (100% laser power) The bleached ROI was then monitored for recovery using an argon laser set at 580 nm every 10 s over 16 min (13% laser power). […]
Vesicle trafficking was quantified using differential ImageJ Difference Tracker Plug-in (Andrews et al., 2010). 50-80-μm long unbranched axon segments at approximately the mid-region between growth cone and cell body were analyzed. […] The distance between the growth tip at end of the post-CALI sequence and the pre-CALI baseline was measured using LAS-X software. […]

[2] = test system: Ac-α-tubulin; experiment: Immunoblotting for Ac-α-tubulin in adult DRG neurons; assay type: cell-based, rat
Experimental: We tested for this specificity in the adult DRG neurons from above by immunoblotting. […] (A) Number of mitochondria in growth cones after exposing DRG cultures to 10 μM TubA versus vehicle (control) for 1 h is shown as average fold-change in number of mitochondria per growth cone±SEM (n=13 axons across three culture preparations; *, P≤0.05 by one-way ANOVA with Bonferroni post hoc analysis). (B) Representative EMs of Remak bundles (arrowheads) in naive Sciatic nerve and nerves after 2 h vehicle (DMSO) or TubA injection are shown. Arrows indicate mitochondria in the unmyelinated axons. Note that a Schwann cell nucleus (asterisk) is seen in the Remak bundle for DMSO image but not the other two micrographs (scale bar=3 μm). (C) Quantification of number of mitochondria per unmyelinated axon from EM images as in B is shown as average±SEM (n≥5; *****, P≤0.0001 by one-way ANOVA with Bonferroni post hoc analysis). (D-F) Quantification for indicated parameters for mitochondrial transport in sciatic nerve in vivo using tetramethylrhodamine, ethyl ester, perchlorate to visualize mitochondria is shown.
For immunoblotting, protein lysates or immunoprecipitates were denatured by boiling in Laemmli sample buffer, fractionated by SDS-PAGE, and transferred to nitrocellulose membranes. Blots were blocked for 1 h at room temperature with 5% nonfat dry milk in TBS with 0.1% Tween 20 (TBST). Primary antibodies diluted in 5% BSA in TBST were added to the membranes and incubated overnight at 4° C. with rocking. Primary antibodies consisted of rabbit anti-Myc (1:2,000; Cell Signaling; 71D10), rabbit anti-RHOT1 antibody (1:1,000; Aviva Systems Biology; ARP44817 P050), rabbit anti-HDAC6 antibody (1:2,000; Cell Signaling; 7558), rabbit anti-ERK1 (1:5,000; Abcam; ab32537), and affinity-purified custom rabbit anti-Miro1-AcK105 (1:2,500; Twiss laboratory, see above) antibodies. For the anti-Miro1-AcK105 antibody, preimmune and test-bleed sera were used at 1:1,000 dilutions to initially evaluate for specificity. […] Signals were detected using ECL Prime (GE Healthcare) after extensive washing.

## CN1CCc2c(c3ccccc3n2Cc2ccc(C(=O)NO)cc2)C1 [TubA, tubastatin]
[1]; HDAC6 inhibition with TubA
  effect on MAG-Fc's attenuation of axonal Mito-GFP recovery (axon shaft): prevented by HDAC6 inhibition
[1]; TubA-treated cultures
  Mito-GFP recovery pattern along axon shaft: more rapid recovery in proximal segments
[2]; 1 μM
  Ac-α-tubulin levels: clear increase in Ac-α-tubulin levels
[2]; 10 μM
  Ac-α-tubulin levels: clear increase in Ac-α-tubulin levels
[2]; 100 μM
  Ac-α-tubulin levels: clear increase in Ac-α-tubulin levels
